These are literature values, as cited in patent US20240165064A1, “LONG-LASTING RESORBABLE SUBCUTANEOUS IMPLANT WITH PROLONGED RELEASE OF PRE-CONCENTRATED PHARMACOLOGICALLY ACTIVE SUBSTANCE IN POLYMER FOR THE TREATMENT OF HYPOTHYROIDISM, AND METHOD” (priority 2021, published 2024).

For this data set, the system named is patients with primary hypothyroidism.
[1] abbreviates: T3 group compared to T4 group, 6 weeks.

In the case of `N[C@@H](Cc1cc(I)c(Oc2ccc(O)c(I)c2)c(I)c1)C(=O)O` [T3, triiodothyronine], the “weight lost on average more than the group receiving T4 treatment” value (14 patients, three times a day for 6 weeks, T3 group compared to T4 group) was 1.8 ± 1.9 kg. Besides, under setting [1], the “decrease in low density cholesterol (non-HDL)” value was 13.3±12.1%, the “decrease in total cholesterol” value is on record as 10.9±10.0% and the “reduction in apolipoprotein B” value is on record as 18.3±28.6%. Where the note is “T3 treatment compared to T4 treatment, 6 weeks”, the side effects result is listed as “without presenting significant side effects”.
